{
  "source": "patent US11752131B2",
  "about": "“Methods and pharmaceutical compositions for the treatment of obesity” (INSERM (Institut National de la Sante et de la Recherche …, priority 2016, dated 2023)",
  "key": {"HFD-fed mice [1]": {"tested_on": "HFD-fed mice", "assay": "Insulin tolerance test (ITT) in HFD-fed mice", "assay_type": "in vivo", "conditions": "after 9 wks of HFD (FIG. 2A) and 20 wks of FAT diet (FIG. 2B), insulin 0.75 U/kg i.p., adjusted on percentage of fat mass gained", "method": "(§1) C57BL/6 Ido-1−/− mice were from the Jackson Laboratory. Seven week-old Bl6 and Idoko male mice were subjected to HFD containing 60% fat during 20 weeks.\nInsulin tolerance tests (ITT) was performed in mice food deprived 5 h prior intraperitoneal injection of insulin (0.75 U/kg). Blood was sampled from the tail vein at 0, 5, 15, 30, 60 and 120 min in order to assay glucose concentration (glucometer, France).\nWe next examined the effect of Ido deficiency or inhibition on glucose homeostasis in HFD-fed mice. To this end, we performed insulin tolerance tests (ITT) on Bl6, Idoko mice and Ido inhibitor (L-1 methyl tryptophan, L-1MT)-treated mice after 9 wks or 20 wks of HFD."}, "HFD-fed mice [2]": {"tested_on": "HFD-fed mice", "assay": "Oral glucose tolerance test (OGTT) with HOMA-IR index in HFD-fed mice", "assay_type": "in vivo", "conditions": "after 9 or 20 wks of HFD, normalized to fat mass (FIG. 3), versus Bl6 mice", "method": "as §1\nThe oral glucose tolerance test was performed in mice food deprived for overnight prior to an oral administration of 3 g/kg glucose. Blood was sampled from the tail vein at 0, 5, 15, 30, 60 and 120 min in order to assay glucose concentration (glucometer, France). Plasma insulin concentration was measured using ELISA kit (Crystal Chem Inc., Downers Grove, Ill., USA). HOMA-IR in mice was calculated using the equation (fasting glucose concentration×fasting insulin concentration)/405).\nMoreover, the insulin resistance index (HOMA-IR) was lower in Ido KO mice or L1MT-treated mice after 9 or 20 wks of HFD (FIG. 3)."}},
  "data": [
    {"smiles": "Cn1cc(C[C@H](N)C(=O)O)c2ccccc21", "note": "[L-1MT, L-1 methyl tryptophan]", "values": [
      {"measurement": "insulin sensitivity in insulin tolerance test (ITT) versus Bl6 mice", "setting": "HFD-fed mice [1]", "value": "more insulin sensitive"},
      {"measurement": "insulin resistance index (HOMA-IR)", "setting": "HFD-fed mice [2]", "value": "lower"}
    ]}
  ]
}
